Measurements as given in publication PMC4322620 (Frontiers in Pharmacology, 2015).
Where a SMILES comes first, the peptide text is derived from it. [ ]: non-standard residue; d: D form. pGlu = O=C1CC[C@@H](C(=O)O)N1

Columns and labels:
NTS1 (HT-29 cells) = NTS1 (HT-29 cells) (Homo sapiens, UniProt P30989); assay: cell-based
[1] = target: neurotensin receptors (HT-29 cells) (Homo sapiens, UniProt P30989); format: cell-based
neurotensin receptors (HT-29 cells), sequence (P30989 whole entry, looked up): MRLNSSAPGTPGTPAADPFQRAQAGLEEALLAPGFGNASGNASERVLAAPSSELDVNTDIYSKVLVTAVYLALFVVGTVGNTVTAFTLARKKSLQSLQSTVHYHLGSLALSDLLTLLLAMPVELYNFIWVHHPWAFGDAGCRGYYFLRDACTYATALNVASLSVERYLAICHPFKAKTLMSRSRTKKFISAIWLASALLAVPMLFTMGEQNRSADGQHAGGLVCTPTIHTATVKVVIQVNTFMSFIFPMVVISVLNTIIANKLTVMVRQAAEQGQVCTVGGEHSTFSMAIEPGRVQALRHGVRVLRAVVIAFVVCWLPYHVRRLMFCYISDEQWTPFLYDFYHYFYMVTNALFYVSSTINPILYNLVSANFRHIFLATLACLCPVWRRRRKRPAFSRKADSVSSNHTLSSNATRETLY

NTS1 (HT-29 cells), sequence (P30989 whole entry, looked up): as above

Row | SMILES | EC50 (NTS1 (HT-29 cells)) [nM] | DC50 [1] [nM] | DC50/EC50 [1]
1 | CC[C@H](C)[C@H](NC(=O)[C@H](Cc1ccc(O)cc1)NC(=O)[C@@H]1CCCN1C(=O)[C@H](CCCNC(=N)N)NC(=O)[C@H](CCCNC(=N)N)NC(=O)[C@@H]1CCCN1C(=O)[C@H](CCCCN)NC(=O)[C@H](CC(N)=O)NC(=O)[C@H](C)NC(=O)[C@H](Cc1ccc(O)cc1)NC(=O)[C@H](CC(C)C)NC(=O)[C@@H]1CCC(=O)N1)C(=O)N[C@@H](CC(C)C)C(=O)O [[A4] NT] | 0.6 ± 0.1 | 11.7 ± 1.4 | 20
2 | CC[C@H](C)[C@H](NC(=O)[C@H](Cc1ccc(O)cc1)NC(=O)[C@@H]1CCCN1C(=O)[C@H](CCCNC(=N)N)NC(=O)[C@H](CCCNC(=N)N)NC(=O)[C@@H]1CCCN1C(=O)[C@H](CCC(=O)O)NC(=O)[C@H](CC(N)=O)NC(=O)[C@H](CCC(=O)O)NC(=O)[C@H](Cc1ccc(O)cc1)NC(=O)[C@H](CC(C)C)NC(=O)[C@@H]1CCC(=O)N1)C(=O)N[C@@H](CC(C)C)C(=O)O [[E6] NT] | 4.7 ± 1.4 | 57.5 ± 5.9 | 12
3 | CC[C@H](C)[C@H](NC(=O)[C@H](Cc1ccc(O)cc1)NC(=O)[C@@H]1CCCN1C(=O)[C@H](CCCNC(=N)N)NC(=O)[C@H](CCCNC(=N)N)NC(=O)[C@@H]1CCCN1C(=O)[C@H](CCCCN)NC(=O)[C@H](CC(N)=O)NC(=O)[C@H](CCCCN)NC(=O)[C@H](Cc1ccc(O)cc1)NC(=O)[C@H](CC(C)C)NC(=O)[C@@H]1CCC(=O)N1)C(=O)N[C@@H](CC(C)C)C(=O)O [[K4] NT] | 1.4 ± 0.1 | 30.5 ± 6.2 | 22
4 | CC[C@H](C)[C@H](NC(=O)[C@H](Cc1ccc(O)cc1)NC(=O)[C@@H]1CCCN1C(=O)[C@H](CCCCN)NC(=O)[C@H](CCCCN)NC(=O)[C@@H]1CCCN1C(=O)[C@H](CCCCN)NC(=O)[C@H](CC(N)=O)NC(=O)[C@H](CCC(=O)O)NC(=O)[C@H](Cc1ccc(O)cc1)NC(=O)[C@H](CC(C)C)NC(=O)[C@@H]1CCC(=O)N1)C(=O)N[C@@H](CC(C)C)C(=O)O [[K8, K9] NT] ([pGlu]LYENKPKKPYIL-OH) | 20.2 ± 5.2 | 67 ± 18.1 | 3.3
